This note sets out measurements from patent US20130158070A1, “CONJUGATES OF POLYUNSATURATED FATTY ACIDS AND AMINE-CONTAINING COMPOUNDS AND USES THEREOF” (priority 2010, published 2013).

For test [1], the system named is collagen induced arthritis. Briefly: Collagen induced arthritis (CIA), arthritis score, paw thickness, body weight. In kind it is in vivo, DBA/1J mice. The settings on record: 50 mg/kg IP; for day from which arthritis score (AS) increases: 3 times a week, 12 administrations; for CIA development: overall conclusion; for arthritis thickness index (ATI) increase: from day 0 to day 70, groups 1M DHA-Tau, 2M DHA, 4M Ibuprofen. As to the method: In a different study, 34 male 8-10 weeks old DBA/1J mice were used. Animals were fed ad libitum a commercial rodent diet (Teklad Certified Global 18% Protein Diet cat #: 106S8216). Animals had free access to acidified drinking water (pH between 2.5 and 3.0) obtained from the municipality supply.
The effect of MWL-002 (conjugate of DHA and taurine) was tested and compared to that of Ibuprofen. Cremophore EL was used as a vehicle.
On day 0, each mouse was anesthetized by inhalation of 3% isofluorane and injected intradermally at the base of the tail with 0.1 ml of emulsion containing 100 μg collagen, using a 1-ml glass syringe with a 26-guade needle. Booster injection was performed at day 15 to the same injection site.
The tested materials were administered 3 times a week, via IP for a total of 12 administrations starting on day 1.
Observations for clinical score were performed twice weekly until study termination.
The severity of arthritis was scored based on the level of inflammation in each of the four paws and recorded as one of five grades according to the following:
Hind paw thickness (edema) was measured by digital caliper once a week until Day 14 and thereafter twice weekly and prior to study termination. Two cross sectional areas were marked, one on the paw and the other at the ankle (tarsal joint). Two measurements were made on each section, perpendicular to each other. The results obtained were calculated as the average areas of both hind limbs per animal.
Body weight was measured prior to dosing, during the study twice a week and prior to study termination.

For a further test, the target named is T1, COX-2 (Homo sapiens, UniProt P35354).
T1 sequence (P35354 18-604): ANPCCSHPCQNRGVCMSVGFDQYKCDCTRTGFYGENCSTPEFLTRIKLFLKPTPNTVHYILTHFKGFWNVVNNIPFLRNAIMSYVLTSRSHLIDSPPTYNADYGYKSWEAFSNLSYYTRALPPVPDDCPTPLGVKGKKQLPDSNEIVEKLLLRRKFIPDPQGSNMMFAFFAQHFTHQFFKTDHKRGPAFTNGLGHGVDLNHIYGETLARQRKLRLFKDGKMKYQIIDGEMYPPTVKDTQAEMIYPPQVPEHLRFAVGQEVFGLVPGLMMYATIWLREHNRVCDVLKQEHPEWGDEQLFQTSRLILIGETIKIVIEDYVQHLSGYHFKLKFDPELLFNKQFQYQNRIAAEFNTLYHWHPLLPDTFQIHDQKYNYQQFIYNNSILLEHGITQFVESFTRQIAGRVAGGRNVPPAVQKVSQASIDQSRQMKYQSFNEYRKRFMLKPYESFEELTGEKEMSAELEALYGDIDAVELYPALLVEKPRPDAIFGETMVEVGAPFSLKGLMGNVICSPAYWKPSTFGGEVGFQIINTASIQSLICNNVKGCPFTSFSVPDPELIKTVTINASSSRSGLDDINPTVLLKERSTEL
Briefly: COX-2 inhibition, enzyme immunoassay (EIA). In kind it is biochemical. The following applies: ratio of COX-1 IC50 to COX-2 IC50. As to the method: Exemplary conjugates as described herein were tested in vitro for inhibition of COX-1 and COX-2, using an enzyme immunoassay (EIA), as follows.
Cyclooxygenase catalyzes the first step in the biosynthesis of arachidonic acid (AA) to PGH2. PGF2α, produced from PGH2 by reduction with stannous chloride, is measured by enzyme immunoassay (ACETM competitive EIA).
Stock solutions of test compounds were dissolved in a minimum volume of DMSO. Briefly, to a series of supplied reaction buffer solutions (960 μl, 0.1M Tris-HCl pH 8.0 containing 5 mM EDTA and 2 mM phenol) with either COX-1 or COX-2 (10 μl) enzyme in the presence of heme (10 μl) were added 10 μl of various concentrations of test drug solutions (0.01, 0.1, 1, 10, 50, and 100 μM in a final volume of 1 ml). These solutions were incubated for a period of 5 minutes at 37° C. after which 10 μL of AA (100 μM) solution were added and the COX reaction was stopped by the addition of 50 μl of 1M HCl after 2 minutes. PGF2α, produced from PGH2 by reduction with stannous chloride was measured by enzyme immunoassay.
This assay is based on the competition between PGs and a PG-acetylcholinesterase conjugate (PG tracer) for a limited amount of PG antiserum. The amount of PG tracer that is able to bind to the PG antiserum is inversely proportional to the concentration of PGs in the wells since the concentration of PG tracer is held constant while the concentration of PGs varies. The concentration of the test compound causing 50% inhibition (IC50, μM) was calculated from the concentration-inhibition response curve (duplicate determinations).

The subject of test [2] is oxazolone-induced allergic dermatitis. Briefly: Murine oxazolone-induced allergic dermatitis. The following applies: hematoxylin and eosin stained sections. In kind it is in vivo, mice. From the text: An allergic form of contact dermatitis can be induced in mice by repeated epicutaneous application of the chemical sensitizer oxazolone. This leads to local augmented thickness and weight increase of the skin area where the rechallenge was applied; from the histological point of view, oxazolone-induced dermatitis is characterized by severe mononuclear cell infiltration of the dermis with in situ production of the type 1 proinflammatory cytokines TNF-alpha, IL-1alpha and IFN-gamma. These well-defined mechanistic pathways of inflammatory skin damage make oxazolone-dermatitis a useful in vivo tool for pathogenic studies and a pharmacodynamic parameter to screen drugs of potential utility in counteracting type 1 cytokine dependent cutaneous immunoinflammatory responses such as those found in some forms of bullous disorders, cutaneous vasculitis and psoriasis.
The efficacy of MWL001 in the treatment of Murine oxazolone-induced allergic dermatitis was evaluated. MWL001 and DEX were administered one hour after the second challenge with oxazolone.
The mice were sensitized on day 0 by a single application of 10 ∞l of 2% oxazolone (Sigma Chimica, Milan, Italy) in ethanol to the inner and outer surface of the left ear. The disease was elicited by local rechallenge on day 7 with 15% oxazolone. The right ear was treated with the vehicle of oxazolone (acetone). Eighteen hours after […] the mice are sacrificed under ether anesthesia and both the right and left ears were excised.
Inflammation was assessed as the percentage increase in ear thickness and/or ear weight in the treated left ear vs. the vehicle-treated right ear. Ear thickness was measured with a digital calliper. The extent of the inflammation was quantified as follows: ear swelling (%)=100×(a−b)/b, where a is thickness/weight of the left (treated) ear and b is the thickness/weight of the right (untreated) ear.
Ear tissue samples were fixed with 4% formaldehyde in phosphate-buffered saline (PBS) and embedded in paraffin. Thereafter, 6-μm sections were deparaffinized with xylene, stained with hematoxylin-eosin and observed with a Zeiss microscope (Jena, Germany).

In a further test the test system is DNBS-induced colitis. Briefly: DNBS-induced experimental colitis in mice, oral administration. The settings on record: day four after DNBS, MWL001 50 mg/kg oral daily. In kind it is in vivo. The protocol: In this study, the effect of MWL001 on pro-inflammatory mediators in DNBS-induced experimental colitis in mice was evaluated. In particular it was observed that there was no expression of TNF-α, CD4, TGF-13, CD25 in the colon tissue from sham-treated mice. MWL001 and DEX were administered orally and daily starting at six hours after the DNBS challenge.
Colitis was induced with a very low dose of 2,4-dinitrobenzene sulfonic acid (DNBS) (4 mg per mouse) by using a modification of the method first described in mice. […] Mice were anesthetized by Enflurane. DNBS (4 mg in 100 μl of 50% ethanol) was injected into the rectum through a catheter inserted 4.5 cm proximally to the anus. The carrier alone (100 μl of 50% ethanol) was administered in control experiments. Thereafter, the animals were kept for 15 minutes in a Trendelenburg position to avoid reflux. […] On Day four, the animals were weighed and anaesthetized with chloral hydrate, and their abdomen was opened by a midline incision. The colon was removed, freed from surrounding tissues, opened along the antimesenteric border and processed for histology.
TNF-α and IL-6 levels were evaluated and colon tissues collected at four days after DNBS administration. Briefly, portions of terminal colon were homogenized as previously described in phosphate-buffered saline (PBS, ICN Biomedicals, Milan, Italy) containing two mmol/L of phenyl-methyl sulfonyl fluoride (PMSF, Sigma Chemical Co.). The assay was carried out using a colorimetric, commercial kit (R&D system Milan, Italy) according to the manufacturer instructions. All cytokines determinations were performed in duplicate serial dilutions.
At four days after DNBS administration, colon tissues were fixed in 10% (w/v) PBS-buffered formaldehyde and 7 μm sections were prepared from paraffin embedded tissues. After deparaffinization, endogenous peroxidase was quenched with 0.3% (v/v) hydrogen peroxide in 60% (v/v) methanol for 30 min. The sections were permeabilized with 0.1% (w/v) Triton X-100 in PBS for 20 min. Non-specific adsorption was minimized by incubating the section in 2% (v/v) normal goat serum in PBS for 20 min. Endogenous biotin or avidin binding sites were blocked by sequential incubation for 15 min with biotin and avidin (Vector Laboratories, Burlingame, Calif.), respectively. Sections were incubated overnight with: 1) purified polyclonal antibody directed towards CD4 (Santa Cruz Biotechnology, 1:500 in PBS, v/v) or 2) with purified anti-CD25 (Santa Cruz Biotecnology 1:500 in PBS, w/v) or 3) with anti- TNF-α polyclonal antibody (Santa Cruz Biotechnology, N-19:sc-1350, 1:500 in PBS, v/v) or 4) with anti-TGF-β polyclonal antibody (Santa Cruz, 1:500 in PBS, v/v).
Sections were washed with PBS, and incubated with a secondary antibody. Specific labelling was detected with a biotin-conjugated goat anti-rabbit IgG and avidin-biotin peroxidase complex (Vector Laboratories, Burlingame, Calif.).

As to `CC(C)Cc1ccc(C(C)C(=O)O)cc1` (centres unmarked) [Ibuprofen], in test [1], the “day from which arthritis score (AS) increases” value amounted to 40 days, the CIA development entry is listed as “not substantially effective” and the “arthritis thickness index (ATI) increase” value was 190%.
For `CCCCCCCC/C=C\CCCCCCCC(=O)n1cc(CC(=O)O)c2cc(O)ccc21` [MWL-007, N-oleoyl-5-hydroxy-indol-3-yl-acetic acid], the “Ratio (COX ½)” value at COX-2 turned out to be 15.83.
Regarding `CC/C=C\C/C=C\C/C=C\C/C=C\C/C=C\C/C=C\CCC(=O)O` [DHA, all-cis-4,7,10,13,16,19-docosahexaenoic acid], in test [1], the “day from which arthritis score (AS) increases” value was 40 days, the CIA development result is given as “not substantially effective” and the “arthritis thickness index (ATI) increase” value was determined as 180%.
Take `C[C@@H]1C[C@H]2[C@@H]3CCC4=CC(=O)C=C[C@]4(C)[C@@]3(F)[C@@H](O)C[C@]2(C)[C@@]1(O)C(=O)CO` [DEX, dexamathasone, reference compound]: in test [2], the “histology: ear thickness and inflammatory cells in epidermis and dermis” value is “markedly reduced”. In the test on DNBS-induced colitis (colorimetric kit), the IL-6 colon levels result is listed as “significant reduction” and the TNF-α colon levels entry is given as “significant reduction”. Further, in the test on DNBS-induced colitis (immunostaining), the “expression of CD4 in colon tissue” value is reported as “significantly reduced”, the “expression of CD25 in colon tissue” value is listed as “significantly reduced”, the “expression of TGF-β in colon tissue” value was “significantly reduced” and the “expression of TNF-α in colon tissue” value is on record as “significantly reduced”.
